What was measured:
B16F1 melanoma cells = assay: DCFDA staining (reactive oxygen species) of B16F1 melanoma cells; assay type: cell-based; conditions: 48 hours, FIG. 19
Protocol: Metabolic Activity Assay. Cells were prepared as previously described. The specific metabolic dye was added and mixed into the cell suspension. This plate was then placed into the 37° incubator for a 20-minute incubation. After incubation, the cells were centrifuged at 300×g for 5 minutes, and the supernatant was removed. The cells were then washed once with PBS/2.5% FBS and transferred into flow cytometric tubes containing 500 μL of PBS/2.5% FBS for analysis
5-(and -6)-Chloromethyl-2′,7′-dichlorodihydrofluorescein diacetate (CMH2DCFDA) (Molecular Probes). One vial of DCFda provides 10 tests and contains 50 μg. This is unstable and can't be stored. Therefore, each vial was opened and 43 μL of DMSO was added. […]
Geometric Mean Fluorescence. […] Once the stained sample was plotted against the control (isotype or unstained), geometric mean fluorescence values were obtained for both histogram peaks. The stained control sample value was subtracted from sample to identify the actual fluorescence of the stained sample over that of the control.
B16F1 melanoma cells of Example 12 were untreated or treated with etomoxir at the indicated concentrations for 48 hours. Cells were harvested, stained with DCFDA as described in Materials and Methods, and analyzed by flow cytometry. The value of DCFDA was then calculated as described in Materials and Methods.

[1] = test system: human leukemia HL60 cells; assay: DCFDA staining of HL60 cells; assay type: cell-based; conditions: 24 hours of incubation, FIG. 14
Protocol: Flow Cytometry. Cells were harvested, counted, and resuspended at 10^6 cells/100 μl of PBS containing 2.5% fetal calf serum in preparation for flow cytometric analysis. Cells were stained for intracellular H202 using 6-carboxy-2′,7′-dichlorodihydrofluorescein diacetate (DCF-DA, Molecular Probes, Eugene, Oreg.). Briefly, cells were incubated at 37° with 1 mM DCF-DA for 20 minutes, washed twice in PBS containing 2.5% fetal calf serum and analyzed flow cytometrically. Mitochondrial membrane potential was assessed using Mitotracker Red (CM-H2XROS, Molecular Probes, Eugene, Oreg.). The cells were resuspended in PBS containing 2.5% fetal calf serum containing a final concentration of 0.5 micromolar Mitotracker dye. The cells were incubated at 37° for 20 minutes, washed twice in PBS containing 2.5% fetal calf serum and analyzed flow cytometrically. Data were acquired on a Coulter Elite Epics or Excel flow cytometer (Coulter, Hialeah, Fla.) and analyzed with CellQuest software, (Becton Dickinson, San Jose, Calif.). […] Each sample population was classified for cell size (forward scatter) and complexity (side scatter), gated on a population of interest and evaluated using 5,000 cells. […]
The effects of etomoxir on human leukemia HL60 cells was determined. […]

[2] = test system: cell surface Fas (CD95) on B16F1 melanoma cells; assay: cell surface Fas (CD95) expression on B16F1 melanoma cells; assay type: cell-based; conditions: 48 hours
Protocol: Cell Surface Staining. Non-permeabilized cells were stained with antibodies to the cell surface receptors Fas (CD95) (Pharmingen) or with antibodies to uncoupling proteins (anti-UCP2 antibody) (Alpha Diagnostic International). Antibodies for both the isotype control and actual stain were added to the cell suspension, mixed, and then placed on ice for and incubation of 25 minutes in the dark. Subsequently the cells were centrifuged at 300×g for 5 minutes and the supernatant removed. The cells were washed one time with 100 μL of PBS/2.5% FBS and then transferred into flow cytometric tubes containing 500 μL of PBS/2.5% FBS for analysis.
B16F1 melanoma cells were cultured at a concentration of 0.5 to 1 million cells per ml. Cells were harvested and analyzed by flow cytometry. Dot plots are shown in FIG. 15 as functions of live versus dead cells. Each dot on the dot plot represents one cell. Five thousand cells were assessed for forward scatter (FS), as a function of cell size, versus side scatter (SS), as a function of cellular granularity. […]
Referring to FIGS. 17 and 18, B16F1 melanoma cells of Example 12 were untreated or treated with etomoxir at the indicated concentrations for 48 hours. Cells were harvested, stained with fluorochrome conjugated anti-Fas antibody (Pharmingen) and analyzed by flow cytometry.

HL60 MDR tumor = HL60 MDR tumor implanted in nude mice, tumor volume; assay type: in vivo
From the text: Tumor implantation. Mice were purchased from the Animal Production Program of National Cancer Institute, Frederick, Md. The animals used were Athymic Ncr-nu/nu (strain code 01B74). HL60 MDR cells were harvested and reconstituted at 1 million cells per 100 microliters of phosphate buffered saline. One million tumor cells per injection site were implanted subcutaneously on two sites of the animal's back. Treatments began at exactly seven days post tumor implantation. Tumor size/volume was monitored twice weekly using measurement calipers, with the formula Tumor Volume=π×(short diameter)^2×(long diameter)/6.
Mice experiments with fatty acid metabolism and glycolytic inhibitors. Fatty acid metabolism inhibitors were exemplified by etomoxir at 200 micrograms/day. Glycolytic inhibitors were exemplified by 2-deoxy-D-glucose at 2.5 mM in 100 microliters daily. The combination was administered daily, etomoxir at 200 micrograms and 2-deoxy-D-glucose at 2.5 mM in 100 microliters. All drugs were administered intra-peritoneally. 5-Fluoro-uracil, at 20 mg per kilogram mouse, was injected intra-peritoneally once a week
HL60 MDR human leukemia cells were cultured and implanted in nude mice as described above under “Materials and Methods”. The mice were given 200 ug of Etomoxir, 2.5 mM 2-Deoxy-D-glucose, or both 200 ug of Etomoxir and 2.5 mM 2-Deoxy-D-glucose given daily by IP injection. Treatment began exactly one week after tumor implantation.

## CCOC(=O)C1(CCCCCCOc2ccc(Cl)cc2)CO1 (stereo not drawn) [etomoxir, 2-(6-(4-chlorophenoxy)-hexyl)-oxirane-2-carboxylic acid ethyl ester]
B16F1 melanoma cells
  reactive oxygen species as measured by DCFDA: dose dependent increase
[1]
  reactive oxygen intermediates (DCFDA staining): increases
[2]; FIG. 17
  cell surface Fas expression, live cell population: dose dependent increase
[2]; FIG. 18
  cell surface Fas expression, dead cell population: dose dependent increase
HL60 MDR tumor; 21 day period, single agent
  tumor growth versus control: increase in tumor growth
HL60 MDR tumor; Day 7 after implantation (start of treatment), 200 ug Etomoxir and/or 2.5 mM 2-Deoxy-D-glucose daily IP
  tumor volume, Day 7: 36 mm^3
HL60 MDR tumor; Day 9, 200 ug Etomoxir and/or 2.5 mM 2-Deoxy-D-glucose daily IP
  tumor volume, Day 9: 71.73 mm^3
HL60 MDR tumor; Day 15, 200 ug Etomoxir and/or 2.5 mM 2-Deoxy-D-glucose daily IP
  tumor volume, Day 15: 261.35 mm^3
HL60 MDR tumor; Day 21, 200 ug Etomoxir and/or 2.5 mM 2-Deoxy-D-glucose daily IP
  tumor volume, Day 21: 895.09 mm^3

Source: patent US8071645B2, “Systems and methods for treating human inflammatory and proliferative diseases and wounds, with fatty acid metabolism inhibitors and/or glycolytic inhibitors” (The Regents of the University of Colorado, priority 2003, dated 2011)
